Test results from patent US20220211861A1, “DRUG CONJUGATES AND METHODS OF USING SAME” (The Board of Trustees of the Leland Staford Junior …, priority 2019, published 2022).
*1 amine or outer side, *2 acyl side, *3 side chain or, on linkers, in order; H or OH if unused. Where a SMILES comes first, the peptide text is derived from it. Bridges are numbered along the chain shown (N, C = ends). Roman numbers before positions name the chains, in order. [ ]: non-standard residue; d: D form. The star is where a group is joined. X1 = O=C([C@H](CCCn1nnc2c1-c1ccccc1CN([*:3])c1ccccc1-2)N[*:1])[*:2]; Dolaproine = CO[C@@H]([C@@H]1CCCN1)[C@@H](C)C(=O)O; X3 = O=C(CCC(=O)[*:1])NCCOCCOCCOCCC(=O)[*:2]; Dil = CC[C@H](C)[C@H](NC)[C@@H](CC(=O)O)OC; PABC = O=C(OCc1ccc(N[*:1])cc1)[*:2]; X2 = C[C@@H](N*)[C@@H](O)c1ccccc1; Cit = NC(=O)NCCC[C@H](N)C(=O)O; NMeV = CN[C@H](C(=O)O)C(C)C

Key:
U87MG cells = assay: Indirect (competition) binding assay displacing Alexa Fluor 488-labeled knottin; conditions: competing off 1 nM AF488-2.5F on U87MG cells
Protocol: The binding affinity of the constructs described in Example 1 were measured using U87MG glioblastoma cells. Drug-free protein affinities were measured directly using Alexa Fluor 488-conjugaed proteins and drug conjugates were measured via a competition binding assay displacing Alexa Fluor 488-labeled K. All constructs tested bound to U87MG cells with low-nanomolar affinity (FIG. 9A-B).
U87MG cells were detached using Enzyme-Free Cell Dissociation Buffer (Gibco). Next, 4×10^4 cells were incubated with 1 nM of Alexa Fluor 488 labeled knottin as a competitor and varying concentrations (0.01-500 nM) of KDC, KFDC, or KADC in IBB for 3 h at 4° C. to minimize internalization. Cells were pelleted and washed twice with 800 μL of PBSA (phosphate buffered saline containing 0.1% bovine serum albumin) and the fluorescence of remaining surface-bound protein was measured by flow cytometry using a Guava EasyCyte 8HT instrument (EMD Millipore). Resulting data were evaluated using FlowJo software (TreeStar Inc) and equilibrium dissociation constants (Kd) were determined using Prism software (GraphPad). Error bars represent the standard deviation of experiments performed in triplicate.

U87MG hip xenografts = assay: Therapeutic efficacy study, once weekly for four weeks, tumors implanted with Matrigel; assay type: in vivo, Nu/Nu mice
Protocol: To further investigate each compound, several changes were made to the experimental design. Because of the KDC's rapid systemic clearance, a significant portion of the injected dose is likely lost and the ˜0.6 mg/kg dose was therefore increased substantially. Because dosages for chemotherapeutics are conventionally determined as mass of chemotherapeutic per patient body surface area, a more clinically relevant comparison of equal mass was selected over an equimolar comparison. Next, a once-per-week dosing regimen was selected to coincide with realistic clinical dosing considerations. Finally, tumors were implanted with Matrigel matrix to increase tumor growth and with only 2.5×10^6 cells per injection to decrease initial tumor necrosis. Mice bearing U87MG hip xenografts were equally distributed into the following treatment groups with intravenous injections given once weekly for 4 weeks: KDC, KFDC, KADC, unconjugated proteins, or a PBS control. Each drug conjugate was also evaluated at a low dose and a high dose.
For tumor cell implantation, female Nu/Nu mice (Charles River Laboratory) were anesthetized with 2.5% isoflurane by inhalation with a flow rate of 1 L/min. A volume of 200 μL of 50/50 PBS/Matrigel (Corning), containing 2.5×10^6 U87MG cells, was injected subcutaneously into the right flank. Tumors were allowed to grow for 7 days until reaching a size of approximately 35 mm^2. For therapeutic efficacy studies, mice were binned into experimental groups to ensure equivalent average tumor sizes and starting body weights across all groups.
Mice bearing U87MG flank xenografts, as described above, were injected intravenously with PBS, KDC, KFDC, KADC, or controls proteins. Treatments were administered once per week for four weeks. Tumors were measured three times per week using digital calipers and animal weights were recorded on each dosing day to monitor for potential weight loss as a measure of compound toxicity. Tumor area was calculated as the longest axis of the tumor multiplied by the perpendicular axis. Euthanasia criteria were defined as a tumor area greater than 150 mm^2 or a loss of 20% body weight.

[1] = tested on: RFP-expressing U87MG tumor spheroids; assay: Cell spheroid killing assay over time (IncuCyte); assay type: cell-based
Protocol: Next, this in vitro model was modified to test if similar cell killing could be visualized in addition to confocal imaging experiments. Spheroids were treated with drug conjugates or MMAE at a range of concentrations. After incubating with drug conjugates for 5 d, media was replaced with fresh media containing SYTOX green. Fluorescence measured by a BioTek Synergy H4 microtiter plate reader was compared to spheroids treated with lysis buffer. […] To visualize this killing over time, spheroids treated with 50 or 100 nM of drug conjugates or MMAE were imaged every 4 h using an IncuCyte.
Spheroids of RFP-expressing U87MG cells were formed by seeding round-bottom, 96-well ultra-low adhesion plates (Corning) with 4×10^3 cells/well and centrifuging at 1000×g for 10 minutes. Spheroids were grown for 2 days before replacing media with 200 μL of fresh media containing 10 nM Cytox Green (ThermoFisher) and 0, 50, or 100 nM KDC, KFDC, KADC, or MMAE. Spheroids were incubated in an IncuCyte S3 Live-Cell Analysis System for 5 d with images collected every 4 h.

[2] = 1 mg/kg once weekly for 4 weeks
[3] = 5 mg/kg once weekly for 4 weeks

In the case of `CC[C@H](C)[C@@H]([C@@H](CC(=O)N1CCC[C@H]1[C@H](OC)[C@@H](C)C(=O)N[C@H](C)[C@@H](O)c1ccccc1)OC)N(C)C(=O)[C@@H](NC(=O)[C@H](C(C)C)N(C)C(=O)OCc1ccc(NC(=O)[C@H](CCCNC(N)=O)NC(=O)[C@@H](NC(=O)CCOCCOCCOCCNC(=O)CCC(=O)N2Cc3ccccc3-c3c(nnn3CCC[C@@H]3NC(=O)[C@@H]4CSSC[C@@H]5NC(=O)[C@H](C(C)C)NC(=O)[C@H](CSSC[C@H](NC(=O)CN)C(=O)N6CCC[C@H]6C(=O)N[C@@H](CCCNC(=N)N)C(=O)N6CCC[C@H]6C(=O)N[C@@H](CCCNC(=N)N)C(=O)NCC(=O)N[C@@H](CC(=O)O)C(=O)N[C@@H](CC(N)=O)C(=O)N6CCC[C@H]6C(=O)N6CCC[C@H]6C(=O)N[C@@H](CC(C)C)C(=O)N[C@@H]([C@@H](C)O)C(=O)N4)NC(=O)CNC(=O)[C@H](C)NC(=O)[C@H](CC(C)C)NC(=O)[C@H](CSSC[C@@H](C(=O)NCC(N)=O)NC(=O)[C@H](Cc4ccc(O)cc4)NC(=O)CNC(=O)[C@H](CC(N)=O)NC(=O)[C@@H]4CCCN4C(=O)CNC5=O)NC(=O)[C@H](CC(=O)O)NC(=O)[C@H](CO)NC(=O)[C@H](CC(=O)O)NC(=O)[C@H](CCC(N)=O)NC3=O)-c3ccccc32)C(C)C)cc1)C(C)C` [KDC] (I: H-GCPRPRGDNPPLTC[X1]QDSDCLAGCVCGPNGYCG-NH2 / II: V[Cit][PABC][NMeV]V[Dil][Dolaproine]-X2; disulfide I:2-I:24, I:14-I:26, I:20-I:32; linker I:15-II:N via X3; N-terminus assumed), the Ki (U87MG cells) is reported as 0.9 nM, the “tumor growth” value (U87MG hip xenografts; [2]) is reported as “significantly delayed tumor growth but did not cause tumor regression” and the “tumors regrew after the end of treatment” value (U87MG hip xenografts; [2]) is reported as 5 of 5. For the same molecule, the “efficacy” value (U87MG hip xenografts; [3]) was “very effective”, the tumor regression (U87MG hip xenografts; [3]) was 4 of 5 and the “comparison by mass of drug conjugate per kg mouse body weight” value (U87MG hip xenografts; once weekly for 4 weeks) was “significantly outperformed both KFDC and KADC”. The spheroid toxicity ([1]; 50 or 100 nM, imaged every 4 h) was roughly 100% and the “potency when co-administered with unconjugated knottin” value ([1]; drug conjugate plus unconjugated knottin) was “equivalently effective with or without addition of unconjugated knottin”.
